PMC4268426 (Contraception, 2014)
“Also recorded” adds a separate entry of the source. Read-outs that look alike come from different tables or passages of the source.

Assays:
[1] = pharmacokinetics reported as unaffected; cited from earlier work
[2] = clinical; conditions: female, human, in vivo, po
[3] = human, in vivo

For `C#C[C@]1(O)CC[C@H]2[C@@H]3CCC4=CC(=O)CC[C@@H]4[C@H]3CC[C@@]21C` [norethindrone], the “decrease in AUC with obesity (trend)” value [1] is listed as ~ 20%, the “decrease in Cmax with obesity (trend)” value [1] is listed as ~ 20% and the adverse events (either group (control and treatment)) is listed as “no reports of adverse events”. For the same molecule, the concentration at 24 h (female, human, in vivo, po, 0.35 mg) was 0.27 ng/mL, the change in half-life (treatment group compared to control group) was “unaltered; also recorded: no alteration; also recorded: no change” and the Tmax [2] was 1.32 h. The Vd/F [2] was 313 L, the AUC(0-inf) ([2]; 0.35 mg) was 33.8 ng·h/mL and the AUC(0-t) ([2]; 0.35 mg) was 16.7 ng·h/mL. For the same molecule, the Tmax ([2]; 0.35 mg) was 1.86 h, the Vd/F ([2]; 0.35 mg) was 564 L and the “increase in AUC0-24” value ([3]; female) was 50%. The “increase in AUC0-∞” value ([3]; female) was 35%, the Cmax ([3]; female, po, 0.35 mg) was 2.09 (1.49-3.06) ng/mL and the CL/F ([3]; po) was 7.59 (6.22-10.00) L/hr. For the same molecule, the CL/F ([3]; po, 0.35 mg) was 10.35 (8.55-12.38) L/hr.
